Reference: US20130288981A1, “TARGETING SENESCENT CELLS AND CANCER CELLS BY INTERFERENCE WITH JNK AND/OR FOXO4” (Buck Institute for Research on Aging, priority 2012, published 2013)

Columns and labels:
FOXO4 = FOXO4 knockdown by short hairpins: FOXO4 mRNA (QPCR) and punctate FOXO4 staining; type: cell-based, human; conditions: HCA2 fibroblasts, 8 days after 10Gy XRAY
Excerpt: FIG. 2. Knockdown of FOXO4 results in apoptosis rather than senescence in DNA-damaged IMR90 fibroblasts. A) Reduction in punctate FOXO4 staining and FOXO4 mRNA expression after 8 days 10Gy XRAY in HCA2 fibroblasts infected […] hairpins targeted at FOXO4. […] B) Increased cytoplasmic Cytochrome C staining (a marker of apoptosis; arrowheads) in DNA-damaged IMR90 cells infected with knockdown against FOXO4. The percentage apoptotic cells is quantified. C) Increased TUNEL staining (a second marker of apoptosis) in similar conditions a B.
FIG. 2A: HCA2 fibroblasts were infected with lentiviral particles containing a control shRNA-encoding vector targeted against a mature sequence in GFP (based on vector PLK0.1, Open Biosystems): 5′-[…]-3′ or two independent sequences in (human) FOXO4, shFOXO4-1: 5′-[…]-3′ and shFOXO4-2: 5′-[…]-3′. Following selection for two days in 0.5 μg/ml Puromycin cells were plated and processed as in FIG. 1 to determine FOXO4 mRNA expression and FOXO4 localization by immunofluorescence. FIG. 2B: IMR90 fibroblasts were infected and treated as in A). Following selection 2×10^5 cells were plated on coverslips and irradiated the next day. […] The percentage of cells with released Cytochrome C staining (translocated from punctual mitochondrial staining to diffuse or absent staining) was determined for 100 cells per condition. […]

JNK1/2 = conditions: in vitro and in cultured cells; literature; cited from earlier work
A375 melanoma cells = test: Surviving fraction (MTS) of A375-shGFP versus A375-shFOXO4 cells treated with chemotherapeutic agents; type: cell-based, human
Protocol: FIG. 12. FOXO4 inhibition on sensitizes A375 melanoma cells to inhibitors of the BRAF/MEK pathway. A) A375 cells stably infected with a control shRNA (shGFP) or an shRNA against FOXO4 (shFOXO4) were treated with the indicated concentrations of the BRAF^V600E-inhibitor PLX4032 and the percentage of the surviving fraction on was determined by Aqueous CellQuant assay either after day 6 (left panel) or day 11 (right panel). Note that for the right panel the cells were refreshed at day 7 with the exact same concentration on of PLX4032. B) Similar experiment as in A), except with the general RAF inhibitor RAF265. C) Similar experiment as in A), except with the MEK inhibitor AZD6244.
FIG. 12A: 2×10^4 A375-shGFP or A375-shFOXO4-2 cells were plated in triplicate in 96-well plate chambers. The next day the cells were incubated with the indicated concentrations of PLX4032 or left untreated. After 6 days the a CellTiter 96® AQueous One Solution Cell Proliferation Assay (MTS) was performed according to the manufacturer's instructions (Promega) to determine the relative number of cells versus Mock treated A375-shGFP or A375-shFOXO4-2 melanoma cells (Left panel). Additionally, in a separate experiment the cells were refreshed at day 7 with the same dose of PLX4032 and left for another 4 days after which the same procedure was performed. […]

[1] = tested on: MCF7 mammary carcinoma cells; test: Cytochrome C release in MCF7 cells with FOXO4 knockdown treated with 5'-fluoro-uracil; type: cell-based, human; conditions: 5 μM, 40 h
Protocol: FIG. 11. Sensitization of melanoma cells other types of cancer to additional types of chemotherapy. A) A375 melanoma cells were incubated with the FOXO4-p53 blocking peptide mix in the presence or absence of 2 μM Cisplatin and after 4 days cellular morphology was visualized. […] B) MCF7 mammary carcinoma cells were infected with the short hairpins against FOXO4 and after puromycin selection treated with 5 μM 5′-fluoro-uracil. 40 h later the percentage Cytochrome C-release was scored. The immunofluorescence panels show staining of Cytochrome C. The top, middle and bottom left panels all show mitochondrial Cytochrome C staining. […] C) B16F10Luc mouse melanoma cells were infected with a mouse-specific short hairpin against FOXO4 and short hairpin #2 against human FOXO4 from FIG. 2 which shares sequence homology with mouse FOXO4. After puromycin selection cells were incubated with 10 μM Cisplatin and after 7 days cellular viability was determined by CellTiter 96® AQueous One Solution Cell Proliferation Assay (MTS).
FIG. 11A: 2×10^5 A375 melanoma cells were plated in 24-well plate chambers. The next day the cells were incubated with 50 μM DBD2-peptide or a mixture of 25 μM DBD2-peptide and 25 μM C-term peptide in the presence or absence of 2 μM Cisplatin. […]

Q: For 5′-CCAGCTTCAGTCAGCAGTTAT-3′ [shFOXO4-1], which “knockdown of FOXO4 mRNA and punctate FOXO4 staining” value (FOXO4) is on record?
A: Its value is “induce knockdown of FOXO4 mRNA and reduction in punctate FOXO4”.

Q: With “dDdQdSdRdPdVdQdPdFdLdQdLdTdTdPdRdKdPdRdPdPdRdRdRdQdRdRdKdKdRG [D-JNK1]” as the molecule, how does the “inhibition of JNK1/2 kinase activity” value (JNK1/2) read?
A: The value was “selectively blocks access to its substrates”.

Q: With `Cn1c(Nc2ccc(C(F)(F)F)cc2)nc2cc(Oc3ccnc(-c4ncc(C(F)(F)F)[nH]4)c3)ccc21` [RAF265] as the molecule, how does the “sensitivity of A375-shFOXO4 versus A375-shGFP melanoma cells” value (A375 melanoma cells) read?
A: The value was “more sensitive”.

Q: Which “sensitization of MCF7 cells by FOXO4 knockdown (Cytochrome C release)” value [1] does the source give for `O=c1[nH]cc(F)c(=O)[nH]1` [5-fluorouracyl] here?
A: Its value is “sensitized”.

Q: Which “sensitivity of A375-shFOXO4 versus A375-shGFP melanoma cells” value (A375 melanoma cells) does the source give for `N.N.[Cl][Pt][Cl]` [Cisplatin] here?
A: The value was “more sensitive”.

Q: For 5′-CGTCCACGAAGCAGTTCAAAT-3′ [shFOXO4-2], which “knockdown of FOXO4 mRNA and punctate FOXO4 staining” value (FOXO4) is on record?
A: Its value is “induce knockdown of FOXO4 mRNA and reduction in punctate FOXO4”.
